Test results taken from a compilation of properties of binary mixtures (doi:10.1016/j.molliq.2018.12.032).

Assay: xn = mol fraction of the nth substance listed
Details: 101 kPa

C[P+](c1ccccc1)(c1ccccc1)c1ccccc1.[Br-] + OCCO
x1 = 0.25
Details	electrical conductivity [S/m]	viscosity [mPa·s]
293.15 K	0.119	211
303.15 K	0.153	136
313.15 K	0.192	89.5
323.15 K	0.238	60.6
333.15 K	0.291	42
343.15 K	0.352	29.7
353.15 K	0.422	21.5

[Cl-].c1ccc(C[P+](c2ccccc2)(c2ccccc2)c2ccccc2)cc1 + OCCO
x1 = 0.083
Details	electrical conductivity [S/m]	viscosity [mPa·s]
303.15 K	0.241	43.7
323.15 K	0.365	24.2
333.15 K	0.441	18.4
343.15 K	0.527	14.3
353.15 K	0.623	11.3

C[P+](c1ccccc1)(c1ccccc1)c1ccccc1.[Br-] + OCCOCCO
x2 = 0.8
Details	electrical conductivity [S/m]	viscosity [mPa·s]
293.15 K	0.0618	141
303.15 K	0.0986	103
313.15 K	0.132	60.6
323.15 K	0.18	38.7
333.15 K	0.258	27
343.15 K	0.294	20.4
353.15 K	0.337	18.3

[Cl-].c1ccc(C[P+](c2ccccc2)(c2ccccc2)c2ccccc2)cc1 + OCCOCCO
x2 = 0.875
Details	electrical conductivity [S/m]	viscosity [mPa·s]
293.15 K	0.0466	–
303.15 K	0.0706	102
323.15 K	0.116	42.3
333.15 K	0.147	30
343.15 K	0.158	22.8
